Measured values from US11634451B2, “Method for the site-specific enzymatic labelling of nucleic acids in vitro by incorporation of unnatural nucleotides” (The Scripps Research Institute, priority 2013, dated 2023).

Key:
Type in all cases: biochemical
[1] = target: T1, Klenow fragment of E. coli DNA polymerase I (Escherichia coli, UniProt P00582); experiment: Presteady-state kinetics: incorporation of unnatural triphosphate opposite dNaM and extension; details: 2 μM dCTP, 10 s, dXTPs paired with dNaM; for % Incorporation: 40 nM unnatural triphosphate; for % Extension: 10 μM unnatural triphosphate
T1 construct: the Klenow fragment of E. coli DNA polymerase I
T1 sequence (P00582 324-928): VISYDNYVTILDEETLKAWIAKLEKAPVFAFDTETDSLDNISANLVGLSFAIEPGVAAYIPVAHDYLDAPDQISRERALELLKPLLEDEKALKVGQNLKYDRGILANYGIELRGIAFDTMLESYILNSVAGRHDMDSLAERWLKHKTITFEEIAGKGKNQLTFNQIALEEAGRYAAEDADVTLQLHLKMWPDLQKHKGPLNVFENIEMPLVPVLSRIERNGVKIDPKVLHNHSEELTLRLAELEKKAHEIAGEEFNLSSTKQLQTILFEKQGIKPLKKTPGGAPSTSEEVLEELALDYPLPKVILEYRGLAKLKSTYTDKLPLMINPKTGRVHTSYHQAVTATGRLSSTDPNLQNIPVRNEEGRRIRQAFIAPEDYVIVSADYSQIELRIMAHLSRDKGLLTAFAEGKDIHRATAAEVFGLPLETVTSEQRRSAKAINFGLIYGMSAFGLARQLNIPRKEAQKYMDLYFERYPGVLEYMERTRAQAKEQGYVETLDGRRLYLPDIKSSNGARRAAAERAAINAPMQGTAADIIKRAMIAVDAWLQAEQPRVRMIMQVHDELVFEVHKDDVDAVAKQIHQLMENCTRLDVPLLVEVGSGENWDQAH
Description: Exemplary methods for analyzing unnatural base pair synthesis efficiency (insertion of an unnatural nucleobase opposite its partner in a template) and extension (continued primer elongation) are provided herein. One or both of the nucleobases in an unnatural base pair, in various embodiments, may be a linker-derivatized unnatural nucleobase. One method uses a presteady-state assay. The assay is based on determining, under a fixed set of conditions, the amount of a primer (e.g. 23-mer) that is extended by addition of the unnatural nucleotide opposite its complementary nucleotide in a template (e.g., 45-mer) by a polymerase (e.g., the Klenow fragment of E. coli DNA polymerase I). In this assay, the efficiency of unnatural base pair synthesis is characterized by measuring the percent incorporation (% inc) at a given concentration of the unnatural and next correct triphosphate, for example using a ratio such as [24-mer+25-mer]/[23-mer+24-mer+25-mer]. In this assay, the efficiency of extension is characterized by measuring the percent extension (% ext) at a given concentration of the next correct nucleotide and saturating concentrations of unnatural nucleotide, for example using a ratio [25-mer]/[24-mer+25-mer]. Results from an exemplary presteady-state assay are shown in Table 1, wherein the unnatural triphosphate is 5SICS, FPT1, TPT1, TPT2, TPT3, FTPT3, TPT3^PA, or 5SICS^PA. In some embodiments, the percent incorporation of an unnatural nucleobase is at least 60%, 65%, 70%, 71%, 72%, 73%, 74%, 75%, 76%, 77%, 78%, 79%, 80%, 81%, 82%, 83%, 84%, 85%, 86%, 87%, 88%, 89%, 90%, 91%, 92%, 93%, 94%, 95%, 96%, 97%, 98%, or 99%. In some embodiments, the percent extension of a next correct nucleotide following insertion of an unnatural nucleobase is at least 30%, 31%, 32%, 33%, 34%, 35%, 36%, 37%, 38%, 39%, 40%, 41%, 42%, 43%, 44%, 45%, 46%, 47%, 48%, 49%, 50%, 55%, 60%, 65%, 70%, 75%, 80%, 85%, 90% or greater. In some embodiments, synthesis efficiency is increased by derivatizing the unnatural nucleobase. For example, by the addition of a linker, a protected linker, and/or a linker conjugated to a cargo molecule. As another example, derivatization includes atom substitutions, additions, or deletions. In some embodiments, percent extension is increased by derivatizing the unnatural nucleobase. Derivatization of an unnatural nucleobase, in some instances, increases by at least 1-2 orders of magnitude the efficiency of insertion of the nucleotide complementary to the base pair in the template. This increase in efficiency may be due to an increase kcat and a decreased KM.
^aIncorporation assay conditions: 40 nM unnatural triphosphate, […], 10s. ^bExtension assay conditions: […], 2 μM dCTP, 10 s. dXTPs are paired with dNaM.

OneTaq = experiment: PCR amplification assay to determine fidelity, OneTaq (Example 3)
Procedure: (§1) PCR assay. PCR amplifications were performed in a total volume of 25 μL and with conditions specific for each assay as described in Table 9. After amplification, a 5 μL aliquot was analyzed on a 6% non-denaturing PAGE gel ran along with 50 bp ladder (Life Technologies) to confirm amplicon size. The remaining solution was purified by spin-column (DNA Clean and Concentrator-5; Zymo Research, Irvine, Calif.), followed by 4% agarose gel, recovered with Zymoclean Gel DNA Recovery Kit (Zymo Research), quantified by fluorescent dye binding (Quant-iT dsDNA HS Assay kit, Life Technologies), and sequenced on a 3730 DNA Analyzer (Applied Biosystems). Fidelity was determined as the average % retention of the unnatural base pair per doubling as described below.
(§2) Determination of fidelity. The percent retention of an unnatural base pair (F) was measured using raw sequencing data and normalized to fidelities per doubling. Briefly, the presence of an unnatural nucleotide leads to a sharp termination of the sequencing profile, while mutation to a natural nucleotide results in “readthrough”. The extent of the “read-through” is thus inversely correlated with the retention of the unnatural base pair. To use the sequencing data as a quantitative measurement of PCR fidelity, we performed calibration experiments in the range of 50-100% retention of the unnatural base pair. Therefore, low retention (<50%) and high “read-through” make the quantification inaccurate.
(§3) Quantification of the high retention (>50%) was performed by adjusting the start and stop points for the Sequencing Analysis software (Applied Biosystems) and then determining the average signal intensity individually for each channel (A, C, G and T) for peaks within those defined points (35-45 nucleotides in length) before (section L) and S36 after (section R) the unnatural nucleotide. The R/L ratio was normalized using sequencing calibration plots to account for both noise in the sequencing chromatograms and the read-through in the control samples. […]

Taq polymerase [2] = target: T2, Taq polymerase (Thermus aquaticus, UniProt P19821); experiment: PCR-based screen and amplification of DNA containing unnatural base pairs, Taq (Example 1); details: Taq, 10 s Extension, 52 cycles, D6 template
T2 construct: purchased New England Biolabs (Ipswich, Mass.)
T2 sequence (P19821 whole entry): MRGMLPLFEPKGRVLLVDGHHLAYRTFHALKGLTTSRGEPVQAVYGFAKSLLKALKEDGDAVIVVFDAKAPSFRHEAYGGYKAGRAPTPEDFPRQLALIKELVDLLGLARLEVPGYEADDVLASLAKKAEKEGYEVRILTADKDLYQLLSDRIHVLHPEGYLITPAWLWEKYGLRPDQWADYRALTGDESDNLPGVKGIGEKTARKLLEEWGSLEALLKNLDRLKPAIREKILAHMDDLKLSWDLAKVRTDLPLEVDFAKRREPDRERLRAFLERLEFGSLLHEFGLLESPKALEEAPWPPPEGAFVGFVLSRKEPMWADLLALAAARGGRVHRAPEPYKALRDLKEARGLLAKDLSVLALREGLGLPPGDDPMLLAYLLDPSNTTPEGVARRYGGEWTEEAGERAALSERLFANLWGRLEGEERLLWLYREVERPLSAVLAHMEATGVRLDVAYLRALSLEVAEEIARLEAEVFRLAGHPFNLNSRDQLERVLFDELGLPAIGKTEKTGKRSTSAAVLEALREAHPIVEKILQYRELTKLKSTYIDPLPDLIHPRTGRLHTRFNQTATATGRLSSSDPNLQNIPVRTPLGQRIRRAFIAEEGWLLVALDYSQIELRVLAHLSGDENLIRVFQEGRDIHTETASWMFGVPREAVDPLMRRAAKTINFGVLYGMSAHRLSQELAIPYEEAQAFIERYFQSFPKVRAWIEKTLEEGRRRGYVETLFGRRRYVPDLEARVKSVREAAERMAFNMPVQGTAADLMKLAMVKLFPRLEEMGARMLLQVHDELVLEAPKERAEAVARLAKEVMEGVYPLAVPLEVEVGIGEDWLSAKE
Procedure: (§4) The triphosphates of the 6 group were prepared from the previously reported nucleosides (Kubelka, T., Slavetinska, L., Eigner, V. and Hocek, M. Synthesis of 2,6-disubstituted pyridin-3-yl C-2′-deoxyribonucleosides through chemoselective transformations of bromo-chloropyridine C-nucleosides. Org. Biomol. Chem., 11, 4702-4718) according to Ludwig, J. and Eckstein, F. Rapid and efficient synthesis of nucleoside 5′-0-(1-thiotriphosphates), 5′-triphosphates and 2′,3′-cyclophosphorothioates using 2-chloro-4H-1,3,2-benzodioxaphosphorin-4-one. J. Org. Chem., 54, 631-635. The purity of all other triphosphates was confirmed by MALDI-TOF and UV-VIS. Taq and OneTaq DNA polymerases were purchased from New England Biolabs (Ipswich, Mass.). A mixture of dNTPs was purchased from Fermentas (Glen Burnie, Md.). SYBR Green I Nucleic Acid Gel Stain (10,000×) was purchased from Life Technologies (Carlsbad, Calif.). The synthesis of the DNA templates, D8 (Malyshev, D. A., Dhami, K., Quach, H. T., Lavergne, T., Ordoukhanian, P., Torkamani, A. and Romesberg, F. E. Efficient and sequence-independent replication of DNA containing a third base pair establishes a functional six-letter genetic alphabet. Proc. Natl. Acad. Sci. USA, 109, 12005-12010), used for screening rounds 1-5, and D6 (Malyshev, D. A., Seo, Y. J., Ordoukhanian, P. and Romesberg, F. E. PCR with an expanded genetic alphabet. J. Am. Chem. Soc., 131, 14620-14621), used for all other amplifications, was described previously. Sanger sequencing was carried out as described previously (Malyshev, D. A., Dhami, K., Quach, H. T., Lavergne, T., Ordoukhanian, P., Torkamani, A. and Romesberg, F. E. Efficient and sequence-independent replication of DNA containing a third base pair establishes a functional six-letter genetic alphabet. Proc. Natl. Acad. Sci. USA, 109, 12005-12010). Raw Sanger sequencing traces were used to determine the percent retention of the unnatural base pairs, which was converted to fidelity per doubling, as described (Malyshev, D. A., Dhami, K., Quach, H. T., Lavergne, T., Ordoukhanian, P., Torkamani, A. and Romesberg, F. E. Efficient and sequence-independent replication of DNA containing a third base pair establishes a functional six-letter genetic alphabet. Proc. Natl. Acad. Sci. USA, 109, 12005-12010; Malyshev, D. A., Seo, Y. J., Ordoukhanian, P. and Romesberg, F. E. PCR with an expanded genetic alphabet. J. Am. Chem. Soc., 131, 14620-14621).
(§5) All PCR amplifications were performed in a CFX Connect Real-Time PCR Detection System (Bio-Rad), in a total volume of 25 μL using the following conditions: 1× OneTaq reaction buffer, 0.5× Sybr Green I, MgSO4 adjusted to 4.0 mM, 0.2 mM of each dNTP, 50 μM of each unnatural triphosphate, […] of Primer1 and Primer2 (See Table 2), and 0.02 U/μl of the DNA polymerase. Other conditions specific for each round of screening are described in Table 3. Amplified products were purified using DNA Clean and Concentrator-5 spin columns from Zymo Research (Irvine, Calif.). After purification, the PCR products were sequenced on a 3730 DNA Analyzer (Applied Biosystems) to determine the retention of the unnatural base pair as described below. Fidelity was characterized from unnatural base pair (UBP) retention as determined by sequencing with Primer1 on a 3730 DNA Analyzer (Applied Biosystems).
(§6) Specific PCR assay conditions. PCR with the most promising UBPs was carried out with the conditions as described in Table 3. PCR products were further purified on […] gels, followed by single band excision and subsequent clean up using the Zymo Research Zymoclean Gel DNA Recovery Kit. After elution with 20 μl of water, the DNA concentration was measured using fluorescent dye binding (Quant-iT dsDNA HS Assay kit, Life Technologies), and purified amplicons were sequenced in triplicate with both Primer1 and Primer2 to determine UBP retention and thus amplification fidelity. […]

OneTaq polymerase = experiment: PCR-based screen and amplification of DNA containing unnatural base pairs, OneTaq (Example 1); details: OneTaq
Procedure: as §4, §5, §6

Taq polymerase [3] = target: T2, Taq polymerase; experiment: PCR amplification assay to determine fidelity, Taq (Example 3)
Procedure: as §1, §2, §3

[4] = OneTaq, standard PCR conditions
[5] = 1 min Extension, 52 cycles, D6 template

Row | Compound | % Incorporation [1] | % Extension [1] | Amplification, ×10^12 (Taq polymerase [2]) | Fidelity per Doubling, % (Taq polymerase [2]) | Retention, % (Taq polymerase [2]) | Amplification, ×10^12 (OneTaq polymerase; [5]) | Fidelity per Doubling, % (OneTaq polymerase; [5]) | Retention, % (OneTaq polymerase; [5]) | further results
1 | Cc1cc2ccn([C@H]3C[C@H](O)[C@@H](COP(=O)(O)OP(=O)(O)OP(=O)(O)O)O3)c(=S)c2s1 [TPT2] | 65.7 ± 0.5% | 34.5 ± 0.5% |  |  |  |  |  |  | 
2 | Cc1cc2c(=S)n([C@H]3C[C@H](O)[C@@H](COP(=O)(O)OP(=O)(O)OP(=O)(O)O)O3)ccc2s1 [TPT1] | 28.7 ± 0.5% | 8.8 ± 0.2% |  |  |  |  |  |  | 
3 | COc1cc2ccccc2cc1[C@H]1C[C@H](O)[C@@H](COP(=O)(O)OP(=O)(O)OP(=O)(O)O)O1.O=P(O)(O)OP(=O)(O)OP(=O)(O)OC[C@H]1O[C@@H](n2ccc3ccsc3c2=S)C[C@@H]1O [TPT3-NaM] |  |  | 5.8 ×10^12 | 99.66 ± 0.01% | 86.5 ± 0.5% | 8.3 ×10^12 | 99.79 ± 0.03% | 91.2 ± 1.3% | Fidelity, % (OneTaq; OneTaq PCR (48 cycles), D6 template, dXTP with dNaMTP): > 99.98%; amplification efficiency relative to DNA containing just the natural base pairs (OneTaq; [4]): 4 fold lower; error rate (OneTaq; [4]): 10^−4 per nucleotide; Fidelity, % (OneTaq polymerase; 16 cycles, 1 min extension): 99.92 ± 0.11%; Retention, % (OneTaq polymerase; 16 cycles, 1 min extension): 99.23 ± 1.12%; Amplification (OneTaq polymerase; 16 cycles, 1 min extension, -^a = no amplification was detected): 1004; Fidelity, % (Taq polymerase [3]; Taq PCR (20 cycles), D6 template, dXTP with dNaMTP): 99.7%; amplification efficiency relative to a natural base pair (Taq polymerase [3]; Taq polymerase): 2.5 fold lower; error rate (Taq polymerase [3]; Taq polymerase): 10^−3
4 | O=P(O)(O)OP(=O)(O)OP(=O)(O)OC[C@H]1O[C@@H](n2cc(F)c3ccsc3c2=S)C[C@@H]1O [FTPT3] | 66.3 ± 0.5% | 33.8 ± 0.2% |  |  |  |  |  |  | 
5 | COc1cc(I)c(F)cc1[C@H]1C[C@H](O)[C@@H](COP(=O)(O)OP(=O)(O)OP(=O)(O)O)O1.O=P(O)(O)OP(=O)(O)OP(=O)(O)OC[C@H]1O[C@@H](n2ccc3ccsc3c2=S)C[C@@H]1O [TPT3-FIMO] |  |  | 8.5 ×10^12 | 99.60 ± 0.09% | 84 ± 3% | 8.7 ×10^12 | 99.61 ± 0.03% | 84.7 ± 1.1% | 
6 | Cc1cc2c(=S)n([C@H]3C[C@H](O)[C@@H](COP(=O)(O)OP(=O)(O)OP(=O)(O)O)O3)ccc2o1 [FPT1] | 7.2 ± 0.2% | 32.0 ± 1.5% |  |  |  |  |  |  | 
7 | C#Cc1cc(OC)c([C@H]2C[C@H](O)[C@@H](COP(=O)(O)OP(=O)(O)OP(=O)(O)O)O2)cc1F.O=P(O)(O)OP(=O)(O)OP(=O)(O)OC[C@H]1O[C@@H](n2cc(F)c3ccsc3c2=S)C[C@@H]1O [FTPT3-FEMO] |  |  | 5.7 ×10^12 | 99.51 ± 0.11% | 81 ± 4% | 6.3 ×10^12 | 99.24 ± 0.04% | 72.4 ± 1.4% | 
